BindingDB's records for doi:10.1021/jm011007+ (University of Perugia, 2002)
Values joined by “and” are separate entries in the source; they are usually repeats but may differ in a detail not shown here. Identical values can stand only once.

How the values were obtained:
[1] = molecular target: Sodium-dependent serotonin transporter (Homo sapiens, UniProt P31645); test: Inhibition of [125I]RTI-55 binding to human SERT in clonal cells
[2] = molecular target: Sodium-dependent dopamine transporter (Homo sapiens, UniProt Q01959); test: Inhibition of radioligand [125I]RTI-55 binding to human Dopamine transporter in clonal cells
Sodium-dependent dopamine transporter, sequence (Q01959 whole entry): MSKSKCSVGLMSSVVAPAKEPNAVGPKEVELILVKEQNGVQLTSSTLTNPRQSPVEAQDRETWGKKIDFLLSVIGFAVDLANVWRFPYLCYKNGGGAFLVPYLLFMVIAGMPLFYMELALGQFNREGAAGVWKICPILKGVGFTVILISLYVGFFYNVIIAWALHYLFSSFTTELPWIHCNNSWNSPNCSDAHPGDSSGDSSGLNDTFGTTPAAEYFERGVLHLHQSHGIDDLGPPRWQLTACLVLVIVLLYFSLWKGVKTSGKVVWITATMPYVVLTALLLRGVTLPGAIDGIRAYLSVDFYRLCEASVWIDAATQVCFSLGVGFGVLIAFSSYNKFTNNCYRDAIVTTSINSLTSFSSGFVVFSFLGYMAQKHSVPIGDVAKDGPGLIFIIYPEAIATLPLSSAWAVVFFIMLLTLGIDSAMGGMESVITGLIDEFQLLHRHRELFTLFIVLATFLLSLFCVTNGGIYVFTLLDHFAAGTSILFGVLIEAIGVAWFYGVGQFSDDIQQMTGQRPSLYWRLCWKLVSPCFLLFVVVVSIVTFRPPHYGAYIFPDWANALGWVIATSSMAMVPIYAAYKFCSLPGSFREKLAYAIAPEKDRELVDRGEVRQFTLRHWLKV

Sodium-dependent serotonin transporter, sequence (P31645 whole entry): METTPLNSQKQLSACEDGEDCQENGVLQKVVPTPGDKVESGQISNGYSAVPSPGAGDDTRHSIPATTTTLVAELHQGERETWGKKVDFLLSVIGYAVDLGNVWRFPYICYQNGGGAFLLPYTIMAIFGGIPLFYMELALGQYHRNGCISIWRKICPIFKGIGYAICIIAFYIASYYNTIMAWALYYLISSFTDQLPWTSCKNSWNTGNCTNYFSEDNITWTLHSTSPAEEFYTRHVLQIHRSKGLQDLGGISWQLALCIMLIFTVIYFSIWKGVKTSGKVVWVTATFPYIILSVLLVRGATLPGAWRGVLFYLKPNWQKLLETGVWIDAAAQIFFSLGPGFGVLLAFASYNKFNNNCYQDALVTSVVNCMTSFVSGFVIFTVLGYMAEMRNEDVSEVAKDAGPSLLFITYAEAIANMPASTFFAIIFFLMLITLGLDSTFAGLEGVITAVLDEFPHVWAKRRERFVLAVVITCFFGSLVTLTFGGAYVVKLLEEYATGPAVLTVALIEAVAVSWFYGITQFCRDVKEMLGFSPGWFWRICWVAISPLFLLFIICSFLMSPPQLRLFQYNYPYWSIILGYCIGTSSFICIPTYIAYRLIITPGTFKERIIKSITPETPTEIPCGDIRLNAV

| Structure (SMILES) | Kd [1] | Kd [2] [nM] |
| --- | --- | --- |
| Fc1ccc(C(OCCN2CCN(C/C=C/c3ccccc3)CC2)c2ccc(F)cc2)cc1 | 954 nM and 363 nM | – |
| Fc1ccc(CN(CCCN2CCN(CCCc3ccccc3)CC2)c2ccccn2)cc1 | 282 nM | 11 |
| COc1ccc(OC)c(/C=C/CN2CCN(CCOC(c3ccc(F)cc3)c3ccc(F)cc3)CC2)c1 | 182 nM | 3.8 |
| Fc1ccc(C(OCCN2CCN(C/C=C/Cc3ccccc3)CC2)c2ccc(F)cc2)cc1 | 72 nM | 5.1 |
| c1ccc(CCCN2CCN(CCCN(Cc3ccccc3)c3ccccc3)CC2)cc1 | 759 nM and 758 nM | 10 |
| Fc1ccc(CCCN2CCN(CCOC(c3ccccc3)c3ccc(F)cc3)CC2)cc1 (stereo unspecified) | 468 nM | 31 |
| COc1ccc(N(CCN2CCN(CCCc3ccccc3)CC2)Cc2ccccc2)cc1 | 257 nM | 912 |
| COc1ccc(C(OCCN2CCN(C/C=C/c3ccccc3)CC2)c2ccccc2)cc1 (stereo unspecified) | 692 nM | – |
| COc1ccc(CN(CCN2CCN(C/C=C/c3ccccc3)CC2)c2ccccn2)cc1 | 229 nM | 2190 |
| O=C(/C=C/c1ccccc1Cl)N1CCN(CCOC(c2ccc(F)cc2)c2ccc(F)cc2)CC1 | 170 nM | 724 |
| COc1ccc(CN(CCCN2CCN(CCCc3ccccc3)CC2)c2ccccn2)cc1 | 59 nM | 16 |
| O=C(/C=C/c1c(Cl)cccc1Cl)N1CCN(CCOC(c2ccc(F)cc2)c2ccc(F)cc2)CC1 | 209 nM | 1510 |
| Cc1ccc(CN(CCN2CCN(CCCc3ccccc3)CC2)c2ccccc2)cc1 | 813 nM | 427 |
| COc1ccc(OC)c(/C=C/C(=O)N2CCN(CCOC(c3ccc(F)cc3)c3ccc(F)cc3)CC2)c1 | 204 nM | 562 |
| Fc1ccc(/C=C/CN2CCN(CCOC(c3ccccc3)c3ccccc3)CC2)cc1 | 1320 nM | 16 |
| Fc1ccc(CCCN2CCN(CCOC(c3ccc(F)cc3)c3ccc(F)cc3)CC2)cc1 | 363 nM | 5.6 |
| c1ccc(CCCN2CCN(CCN(Cc3ccccc3)c3ccccc3)CC2)cc1 | 1200 nM | 219 |
| Fc1ccc(CCCN2CCN(CCOC(c3ccccc3)c3ccccc3)CC2)cc1 | 1820 nM | 40 |
| Fc1ccc(CN(CCN2CCN(CCCc3ccccc3)CC2)c2ccc(F)cc2)cc1 | 269 nM | 52 |
| Cc1ccc(C(OCCN2CCN(C/C=C/c3ccccc3)CC2)c2ccccc2)cc1 (stereo unspecified) | 1120 nM | 112 |
| Fc1ccc(/C=C/CN2CCN(CCOC(c3ccccc3)c3ccc(F)cc3)CC2)cc1 (stereo unspecified) | 200 nM | 23 |
| Cc1ccc(/C=C/CN2CCN(CCOC(c3ccc(F)cc3)c3ccc(F)cc3)CC2)cc1 | 661 nM | 48 |
| O=C(CCCCN1CCN(CCCc2ccccc2)CC1)N(Cc1ccccc1)c1ccccc1 | 204 nM | 58 |
| c1ccc(CCCN2CCN(CCCCCN(Cc3ccccc3)c3ccccc3)CC2)cc1 | 234 nM | 32 |
| Fc1ccc(C(OCCN2CCN(C/C=C/c3ccccc3)CC2)c2ccc(Cl)cc2Cl)cc1 (stereo unspecified) | 525 nM | 66 |
| c1ccc(CCCN2CCN(CCCN(Cc3ccccc3)c3ccccn3)CC2)cc1 | 2290 nM | 107 |

| Structure (SMILES) | Kd [1] | Kd [2] [nM] |
| --- | --- | --- |
| c1ccc(CCCN2CCN(CCCCN(Cc3ccccc3)c3ccccc3)CC2)cc1 | 132 nM | 14 |
| CN(CCc1ccccc1)CCN1CCN(CCCc2ccccc2)CC1 | 2630 nM | 550 |
| COc1ccc(CN(CCN2CCN(CCCc3ccccc3)CC2)c2ccccn2)cc1 | 162 nM | 219 |
| O=C(/C=C/c1ccc(Cl)cc1)N1CCN(CCOC(c2ccc(F)cc2)c2ccc(F)cc2)CC1 | 72 nM | 427 |
| Cc1ccc(/C=C/C(=O)N2CCN(CCOC(c3ccc(F)cc3)c3ccc(F)cc3)CC2)cc1 | 195 nM | 794 |
| O=C(CCCN1CCN(CCCc2ccccc2)CC1)N(Cc1ccccc1)c1ccccc1 | 525 nM | 28 |
| Fc1ccc(C(OCCN2CCN(C/C=C/c3ccc(Cl)cc3)CC2)c2ccc(F)cc2)cc1 | 813 nM | 22 |
| Fc1ccc(C(OCCN2CCN(C/C=C/c3ccccc3)CC2)c2ccc(Cl)cc2)cc1 (stereo unspecified) | 191 nM | 3.9 |
| COc1ccc(N(CCN2CCN(C/C=C/c3ccccc3)CC2)Cc2ccccc2)cc1 | 282 nM | – |
| Fc1ccc(C(OCCN2CCN(C/C=C/c3ccccc3)CC2)c2ccccc2)cc1 (stereo unspecified) | 214 nM | 33 |
| Brc1ccc(CN(CCN2CCN(CCCc3ccccc3)CC2)c2ccc(Br)cc2)cc1 | 1620 nM | 977 |
| C(=C\c1ccccc1)/CN1CCN(CCN(Cc2ccccc2)c2ccccc2)CC1 | 603 nM | 447 |
| Fc1ccc(CN(CCN2CCN(CCCc3ccccc3)CC2)c2ccccn2)cc1 | 229 nM | 65 |
| COc1cccc(C(OCCN2CCN(C/C=C/c3ccccc3)CC2)c2cccc(Br)c2)c1 (stereo unspecified) | 741 nM | 132 |
| Fc1ccc(/C=C/CN2CCN(CCOC(c3ccc(F)cc3)c3ccc(F)cc3)CC2)cc1 | 229 nM | 3.9 |
| c1ccc(CCCN2CCN(CCN(Cc3ccccc3)c3ccccn3)CC2)cc1 | 525 nM | 91 |
| C(=C\c1ccccc1)/CN1CCN(CCN(Cc2ccccc2)c2ccccn2)CC1 | 676 nM | 1000 |
| Fc1ccc(CN(CCCN2CCN(CCCc3ccccc3)CC2)c2ccc(F)cc2)cc1 | 331 nM | 14 |
| O=C(CN1CCN(CCCc2ccccc2)CC1)N(Cc1ccccc1)c1ccccc1 | 2880 nM | 1070 |
| Fc1ccc(C(OCCN2CCN(CCCc3ccccc3)CC2)c2ccccc2)cc1 (stereo unspecified) | 617 nM | 20 |
| COc1ccc(/C=C/C(=O)N2CCN(CCOC(c3ccc(F)cc3)c3ccc(F)cc3)CC2)cc1 | 141 nM | 490 |
| Fc1ccc(C(OCCN2CCN(Cc3ccccc3)CC2)c2ccc(F)cc2)cc1 | 182 nM | 98 |
| Fc1ccc(C(OCCN2CCN(CCCc3ccc(Cl)cc3)CC2)c2ccc(F)cc2)cc1 | 155 nM | 8.1 |
| Clc1ccc(C(OCCN2CCN(C/C=C/c3ccccc3)CC2)c2ccc(Cl)cc2)cc1 | 331 nM | 38 |
| O=C(CCCN1CCN(CCCc2ccccc2)CC1)N(Cc1ccccc1)c1ccccn1 | 1320 nM | 562 |
| COc1ccc(/C=C/CN2CCN(CCOC(c3ccc(F)cc3)c3ccc(F)cc3)CC2)cc1 [1-{2-[Bis-(4-fluoro-phenyl)-methoxy]-ethyl}-4-[(E)-3-(4-methoxy-phenyl)-allyl]-piperazine] | 372 nM | 65 |
